{
  "source": "ChEMBL document CHEMBL1201862",
  "about": "“PubChem BioAssay data set” (2004)",
  "key": {"[1]": {"target": "Cyclin-dependent kinase 5/CDK5 activator 1 (Homo sapiens, UniProt Q00535)", "assay": "blockade of human CDK5 activity – biochemical, cherry-picked samples, set 2, dose response (AID 504545)"}, "[2]": {"target": "T1, Microphthalmia-associated transcription factor (Homo sapiens, UniProt O75030)", "T1 sequence (O75030 whole entry)": "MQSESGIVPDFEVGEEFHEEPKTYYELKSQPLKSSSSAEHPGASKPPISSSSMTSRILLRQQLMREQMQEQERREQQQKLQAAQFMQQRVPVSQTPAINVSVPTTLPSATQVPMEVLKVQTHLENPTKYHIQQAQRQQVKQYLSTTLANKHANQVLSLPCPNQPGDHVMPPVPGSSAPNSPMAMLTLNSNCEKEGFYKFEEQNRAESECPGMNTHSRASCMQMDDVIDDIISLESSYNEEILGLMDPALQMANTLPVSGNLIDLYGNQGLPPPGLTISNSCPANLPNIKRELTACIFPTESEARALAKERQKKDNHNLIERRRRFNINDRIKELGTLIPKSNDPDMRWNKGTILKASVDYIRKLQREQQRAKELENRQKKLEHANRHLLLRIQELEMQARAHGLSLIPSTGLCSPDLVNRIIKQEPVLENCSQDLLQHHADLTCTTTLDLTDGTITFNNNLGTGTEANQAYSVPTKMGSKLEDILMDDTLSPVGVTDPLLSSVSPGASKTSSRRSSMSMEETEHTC", "assay": "reducers of TRPM1 reporter luminescence, concentration series – cell-based, SK-MEL-5, cherry-picked, set 3, MITF inhibitor project, dose response (AID 493073)", "type": "functional"}, "HEK293": {"tested_on": "HEK293", "assay": "EBV LMP1 TES2 canonical NF-kB signalling blockers – cell-based, HEK293, luciferase, cherry-pick, dose response (AID 588343)", "type": "functional", "conditions": "Homo sapiens"}, "[3]": {"assay": "ADP-Glo luciferase signal interference – biochemical, luminescence, cherry-picked samples, set 2, artefact control for CDK5 inhibitor project, dose response (AID 504546)", "type": "functional, cell-based"}, "[4]": {"target": "Voltage-gated inwardly rectifying potassium channel KCNH2 (Homo sapiens, UniProt Q12809)", "assay": "concentration-dependent hERG rescue from blockers – cell-based, thallium flux, dose response (AID 2121)", "type": "ADME"}, "[5]": {"target": "T2, Voltage-gated N-type calcium channel alpha-1B subunit/Amyloid beta A4 precursor protein-binding family A member 1 (Homo sapiens, UniProt Q00975+Q02410)", "T2 sequence (Q00975 whole entry)": "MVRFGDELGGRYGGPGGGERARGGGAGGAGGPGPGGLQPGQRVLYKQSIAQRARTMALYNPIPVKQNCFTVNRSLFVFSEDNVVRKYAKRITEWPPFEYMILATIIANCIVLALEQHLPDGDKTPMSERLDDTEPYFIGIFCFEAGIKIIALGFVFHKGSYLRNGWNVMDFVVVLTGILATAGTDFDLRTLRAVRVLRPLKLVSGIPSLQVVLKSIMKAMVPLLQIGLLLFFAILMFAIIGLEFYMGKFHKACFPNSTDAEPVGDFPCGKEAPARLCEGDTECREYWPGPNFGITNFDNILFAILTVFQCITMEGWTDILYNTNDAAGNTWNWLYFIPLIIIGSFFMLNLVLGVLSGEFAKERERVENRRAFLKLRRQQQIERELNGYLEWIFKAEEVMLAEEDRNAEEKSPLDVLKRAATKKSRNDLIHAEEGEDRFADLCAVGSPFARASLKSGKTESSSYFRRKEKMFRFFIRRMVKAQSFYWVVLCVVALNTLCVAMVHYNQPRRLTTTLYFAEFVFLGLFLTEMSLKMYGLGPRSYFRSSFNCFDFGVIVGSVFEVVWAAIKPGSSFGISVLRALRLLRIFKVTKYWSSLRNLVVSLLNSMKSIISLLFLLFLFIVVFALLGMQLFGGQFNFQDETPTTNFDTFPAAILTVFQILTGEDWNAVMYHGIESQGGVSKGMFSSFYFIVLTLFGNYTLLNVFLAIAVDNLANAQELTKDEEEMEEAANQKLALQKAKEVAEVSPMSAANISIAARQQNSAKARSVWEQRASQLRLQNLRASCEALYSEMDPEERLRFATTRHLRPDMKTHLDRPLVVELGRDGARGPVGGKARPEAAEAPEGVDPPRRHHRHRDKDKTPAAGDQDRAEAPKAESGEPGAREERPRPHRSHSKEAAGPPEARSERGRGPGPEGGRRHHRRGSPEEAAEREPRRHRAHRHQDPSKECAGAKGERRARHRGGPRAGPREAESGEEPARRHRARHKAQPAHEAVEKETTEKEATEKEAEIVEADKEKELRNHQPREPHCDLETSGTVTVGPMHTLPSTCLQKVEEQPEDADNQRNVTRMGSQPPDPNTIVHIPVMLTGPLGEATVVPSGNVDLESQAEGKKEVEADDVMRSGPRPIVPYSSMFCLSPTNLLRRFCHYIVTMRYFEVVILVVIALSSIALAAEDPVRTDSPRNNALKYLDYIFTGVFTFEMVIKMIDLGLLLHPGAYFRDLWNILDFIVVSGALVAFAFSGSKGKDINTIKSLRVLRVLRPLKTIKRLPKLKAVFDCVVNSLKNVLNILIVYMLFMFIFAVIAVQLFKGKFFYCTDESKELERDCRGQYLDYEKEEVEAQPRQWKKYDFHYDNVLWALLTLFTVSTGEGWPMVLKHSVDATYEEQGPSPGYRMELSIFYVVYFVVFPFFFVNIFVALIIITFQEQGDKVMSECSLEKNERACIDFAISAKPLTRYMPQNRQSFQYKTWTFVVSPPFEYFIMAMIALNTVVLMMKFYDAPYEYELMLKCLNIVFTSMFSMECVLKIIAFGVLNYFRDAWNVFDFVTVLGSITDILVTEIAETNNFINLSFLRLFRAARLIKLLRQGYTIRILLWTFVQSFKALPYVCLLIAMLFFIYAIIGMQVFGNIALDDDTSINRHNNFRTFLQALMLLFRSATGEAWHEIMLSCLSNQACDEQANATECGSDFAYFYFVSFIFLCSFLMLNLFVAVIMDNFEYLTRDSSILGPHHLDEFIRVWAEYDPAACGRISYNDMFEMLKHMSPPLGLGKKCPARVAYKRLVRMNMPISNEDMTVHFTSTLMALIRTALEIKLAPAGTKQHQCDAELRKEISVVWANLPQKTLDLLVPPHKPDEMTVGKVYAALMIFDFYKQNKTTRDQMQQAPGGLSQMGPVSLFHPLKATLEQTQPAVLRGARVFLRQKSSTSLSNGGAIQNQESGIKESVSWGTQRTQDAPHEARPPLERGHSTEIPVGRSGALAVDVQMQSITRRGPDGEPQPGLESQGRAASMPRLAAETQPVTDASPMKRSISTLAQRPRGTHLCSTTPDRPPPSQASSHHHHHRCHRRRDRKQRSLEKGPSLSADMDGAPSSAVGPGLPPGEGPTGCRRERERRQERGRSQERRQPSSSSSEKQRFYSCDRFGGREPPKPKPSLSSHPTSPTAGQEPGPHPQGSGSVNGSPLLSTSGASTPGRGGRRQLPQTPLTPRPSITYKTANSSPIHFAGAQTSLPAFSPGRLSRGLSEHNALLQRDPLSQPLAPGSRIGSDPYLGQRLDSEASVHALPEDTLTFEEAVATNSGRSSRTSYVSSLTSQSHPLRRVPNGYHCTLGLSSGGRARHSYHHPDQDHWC", "T2 sequence (Q02410 whole entry)": "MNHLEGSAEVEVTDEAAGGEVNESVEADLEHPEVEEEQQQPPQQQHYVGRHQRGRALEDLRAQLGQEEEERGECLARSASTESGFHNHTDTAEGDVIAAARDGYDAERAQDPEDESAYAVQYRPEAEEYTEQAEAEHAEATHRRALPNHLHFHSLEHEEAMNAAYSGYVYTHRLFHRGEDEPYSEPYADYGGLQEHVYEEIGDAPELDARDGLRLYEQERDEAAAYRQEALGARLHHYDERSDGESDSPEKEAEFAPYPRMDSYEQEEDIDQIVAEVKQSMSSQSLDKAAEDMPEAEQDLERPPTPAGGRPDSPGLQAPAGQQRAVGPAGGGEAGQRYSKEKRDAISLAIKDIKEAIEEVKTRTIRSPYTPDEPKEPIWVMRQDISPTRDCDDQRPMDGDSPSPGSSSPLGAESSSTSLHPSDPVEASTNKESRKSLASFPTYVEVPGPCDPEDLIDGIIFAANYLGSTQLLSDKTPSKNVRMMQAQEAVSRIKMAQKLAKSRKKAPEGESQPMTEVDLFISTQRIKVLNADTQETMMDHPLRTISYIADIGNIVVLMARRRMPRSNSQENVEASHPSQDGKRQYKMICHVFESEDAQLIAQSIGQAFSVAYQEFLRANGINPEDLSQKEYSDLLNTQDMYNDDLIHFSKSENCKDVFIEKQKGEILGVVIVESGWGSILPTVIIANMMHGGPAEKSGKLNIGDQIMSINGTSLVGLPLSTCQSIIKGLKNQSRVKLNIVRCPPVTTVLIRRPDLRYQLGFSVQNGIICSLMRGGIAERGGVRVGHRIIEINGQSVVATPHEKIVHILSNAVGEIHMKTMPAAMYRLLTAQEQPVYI", "assay": "disruptors of Mint-PDZ/N-type channel peptide interaction – biochemical, HTRF, set 2, SAR follow-up (AID 434980)", "type": "functional"}, "[6]": {"target": "T2, Voltage-gated N-type calcium channel alpha-1B subunit/Amyloid beta A4 precursor protein-binding family A member 1", "assay": "disruptors of Mint-PDZ/N-type channel peptide interaction – biochemical, HTRF, SAR follow-up (AID 2489)", "type": "functional"}, "[7]": {"target": "Lysosomal acid glucosylceramidase (Homo sapiens, UniProt P04062)", "sequence (P04062 whole entry)": "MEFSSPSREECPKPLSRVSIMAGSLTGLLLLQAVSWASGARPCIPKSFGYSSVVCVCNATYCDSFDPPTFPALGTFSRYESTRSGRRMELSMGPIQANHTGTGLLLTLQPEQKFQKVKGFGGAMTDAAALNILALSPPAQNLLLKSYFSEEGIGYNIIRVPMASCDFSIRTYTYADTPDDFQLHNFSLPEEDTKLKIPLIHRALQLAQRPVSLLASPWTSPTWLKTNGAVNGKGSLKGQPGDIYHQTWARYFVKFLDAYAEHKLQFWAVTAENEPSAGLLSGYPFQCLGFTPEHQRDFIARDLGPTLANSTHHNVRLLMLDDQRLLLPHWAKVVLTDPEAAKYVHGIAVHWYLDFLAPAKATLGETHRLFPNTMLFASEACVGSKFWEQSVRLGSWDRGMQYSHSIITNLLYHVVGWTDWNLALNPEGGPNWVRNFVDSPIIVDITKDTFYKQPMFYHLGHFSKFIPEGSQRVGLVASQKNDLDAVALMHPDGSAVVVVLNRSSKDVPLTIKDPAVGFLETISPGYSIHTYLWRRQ", "assay": "Dose response cell-based high throughput screening assay to identify enhancers of beta-glucosidase activity. [Related pubchem assays: 784 ]", "type": "functional"}, "[8]": {"assay": "A Cell Based Secondary Assay To Explore Cytotoxicity of Compounds that Sensitize Mycobacterium Tuberculosis to Beta-Lactam Antibiotics.", "type": "functional"}, "Cytochrome P450 2D6": {"target": "Cytochrome P450 2D6 (Homo sapiens, UniProt P10635)", "sequence (P10635 whole entry)": "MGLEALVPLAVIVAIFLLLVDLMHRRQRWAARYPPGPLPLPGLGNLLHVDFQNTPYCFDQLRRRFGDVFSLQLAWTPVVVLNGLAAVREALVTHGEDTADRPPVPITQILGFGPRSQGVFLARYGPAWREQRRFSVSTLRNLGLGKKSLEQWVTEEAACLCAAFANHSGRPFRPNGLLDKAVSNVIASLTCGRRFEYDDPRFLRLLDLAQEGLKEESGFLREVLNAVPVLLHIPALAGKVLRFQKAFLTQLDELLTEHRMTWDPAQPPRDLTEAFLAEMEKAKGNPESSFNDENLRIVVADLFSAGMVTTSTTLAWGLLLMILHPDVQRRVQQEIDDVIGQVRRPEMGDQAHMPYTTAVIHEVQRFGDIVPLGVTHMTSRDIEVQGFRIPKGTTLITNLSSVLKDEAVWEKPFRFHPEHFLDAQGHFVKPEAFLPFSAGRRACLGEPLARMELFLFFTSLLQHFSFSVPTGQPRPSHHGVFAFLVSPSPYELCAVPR"}, "[9]": {"target": "Photoreceptor-specific nuclear receptor (Homo sapiens, UniProt Q9Y5X4)", "assay": "ligands suppressing NR2E3 nuclear receptor activity – biochemical, TR-FRET, dose response (AID 463256)", "type": "functional"}, "[10]": {"target": "Peroxisome proliferator-activated receptor gamma/Nuclear receptor corepressor 2 (Homo sapiens, UniProt P37231+Q9Y618)", "assay": "Counterscreen for NR2E3 inverse agonists: TR-FRET-based biochemical high throughput dose response assay to identify inverse agonists of the interaction between peroxisome proliferator-activated receptor gamma (PPARg) and nuclear receptor co-repressor 2 (NCOR2).", "type": "functional"}, "H4": {"tested_on": "H4", "assay": "Luminescence Cell-Based Dose Response HTS to Identify Activators of 5'UTR Stem-Loop Driven Prion Protein mRNA Translation in H4 Neuroglioblastoma Cells. [Related pubchem assays: 1829 (Project Summary), 1814 (Primary HTS)]", "type": "functional", "conditions": "Homo sapiens"}, "[11]": {"assay": "Luminescence Cell-Based Dose Response HTS to Identify Activators of Luciferase Translation or Activity in H4 […] Cells. [Related pubchem assays: 1829 (Project Summary), 1814 (Primary HTS)]", "type": "functional"}, "[12]": {"assay": "Luminescence Cell-Based Dose Confirmation HTS to Identify Activators of 5'UTR Stem-Loop Driven Alpha-Synuclein mRNA Translation in H4 Neuroglioblastoma Cells. [Related pubchem assays: 1829 (Project Summary), 1814 (Primary HTS)]", "type": "functional"}, "[13]": {"target": "Mitogen-activated protein kinase 10 (Homo sapiens, UniProt P53779)", "assay": "Dose response biochemical screening assay for inhibitors of c-Jun N-Terminal Kinase 3 (JNK3). [Related pubchem assays: 746 ]"}, "[14]": {"target": "T3, Heat shock factor protein 1 (Mus musculus, UniProt P38532)", "T3 sequence (P38532 whole entry)": "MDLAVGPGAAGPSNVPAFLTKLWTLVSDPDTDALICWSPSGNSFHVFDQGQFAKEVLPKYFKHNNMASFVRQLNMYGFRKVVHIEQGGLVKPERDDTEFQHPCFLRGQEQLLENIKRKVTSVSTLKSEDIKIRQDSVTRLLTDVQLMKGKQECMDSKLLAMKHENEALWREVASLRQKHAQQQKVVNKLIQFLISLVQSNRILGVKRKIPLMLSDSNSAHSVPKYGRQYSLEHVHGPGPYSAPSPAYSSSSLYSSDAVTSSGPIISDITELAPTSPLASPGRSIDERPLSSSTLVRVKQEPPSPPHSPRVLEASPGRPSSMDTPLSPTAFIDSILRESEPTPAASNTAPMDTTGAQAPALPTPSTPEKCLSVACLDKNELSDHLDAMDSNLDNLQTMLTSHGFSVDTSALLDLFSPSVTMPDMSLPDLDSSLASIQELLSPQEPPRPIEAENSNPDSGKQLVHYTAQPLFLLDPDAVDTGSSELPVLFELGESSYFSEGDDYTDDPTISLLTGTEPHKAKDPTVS", "assay": "enhancement of HSF1-driven luciferase signal – cell-based, NIH3T3, luminescence, dose retest, confirmation (AID 435004);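 note: stress induced by proteasome inhibitor MG132 added 30 min after compound; actives raise luminescence as potentiators of the MG132 stress response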", "type": "functional"}, "[15]": {"target": "Heat shock protein HSP 90-alpha (Homo sapiens, UniProt P07900)", "type": "functional, organism-based"}, "[16]": {"target": "T4, Endoribonuclease toxin MazF (Escherichia coli K-12, UniProt P0AE70)", "T4 sequence (P0AE70 whole entry)": "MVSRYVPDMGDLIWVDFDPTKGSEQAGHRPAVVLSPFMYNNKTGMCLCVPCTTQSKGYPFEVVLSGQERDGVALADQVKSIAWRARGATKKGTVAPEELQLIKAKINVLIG", "assay": "substrate-only fluorescence increase artefacts – biochemical, single-stranded RNase substrate, counter-screen for MazEF activator project, dose response (AID 588502)", "type": "functional"}, "[17]": {"target": "T4, Endoribonuclease toxin MazF", "assay": "activation of MazEF endoribonuclease cleavage – biochemical, fluorescence, single-stranded RNA substrate, uHTS hits, dose response (AID 588481)", "type": "functional"}, "[18]": {"target": "Glucose-6-phosphate 1-dehydrogenase (Homo sapiens, UniProt P11413)", "assay": "inhibition of Homo sapiens G6PD, dose series – biochemical, fluorescence, selectivity assay for P. falciparum G6PD inhibitor project, dose response (AID 504792)", "type": "functional"}, "NS3": {"target": "NS3 (Hepatitis C virus, UniProt A3EZJ3)", "sequence (A3EZJ3 whole entry)": "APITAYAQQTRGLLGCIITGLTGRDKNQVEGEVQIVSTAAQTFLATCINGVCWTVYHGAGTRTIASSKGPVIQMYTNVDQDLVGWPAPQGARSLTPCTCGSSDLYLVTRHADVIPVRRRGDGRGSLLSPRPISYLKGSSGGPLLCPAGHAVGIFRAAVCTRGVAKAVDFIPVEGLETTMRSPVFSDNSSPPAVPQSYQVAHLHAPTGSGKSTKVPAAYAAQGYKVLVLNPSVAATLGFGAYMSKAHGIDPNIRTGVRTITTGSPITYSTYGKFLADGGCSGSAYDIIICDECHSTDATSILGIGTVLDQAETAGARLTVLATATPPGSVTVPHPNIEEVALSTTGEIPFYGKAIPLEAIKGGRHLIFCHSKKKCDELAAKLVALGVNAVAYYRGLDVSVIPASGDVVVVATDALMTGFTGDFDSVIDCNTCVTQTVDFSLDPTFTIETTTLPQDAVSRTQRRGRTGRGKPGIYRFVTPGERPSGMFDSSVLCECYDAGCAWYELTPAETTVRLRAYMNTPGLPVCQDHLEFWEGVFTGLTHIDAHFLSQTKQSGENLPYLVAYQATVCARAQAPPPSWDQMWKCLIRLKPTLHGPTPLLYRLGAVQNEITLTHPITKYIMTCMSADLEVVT", "assay": "PubChem AID 2173", "design": "species or system Hepacivirus hominis"}, "Caspase-6": {"target": "T5, Caspase-6 (Homo sapiens, UniProt P55212)", "T5 sequence (P55212 whole entry)": "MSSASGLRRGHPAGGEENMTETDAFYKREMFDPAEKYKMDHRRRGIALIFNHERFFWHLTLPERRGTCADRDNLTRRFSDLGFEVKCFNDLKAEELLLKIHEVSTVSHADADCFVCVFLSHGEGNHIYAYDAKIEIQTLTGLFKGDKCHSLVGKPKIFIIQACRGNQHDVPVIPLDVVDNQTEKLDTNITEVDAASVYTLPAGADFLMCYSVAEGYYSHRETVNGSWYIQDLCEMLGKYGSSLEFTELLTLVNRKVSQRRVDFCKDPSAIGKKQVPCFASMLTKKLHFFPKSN", "assay": "inhibition of CASP6 peptide cleavage – biochemical, VEID-R110 fluorescence, cherry-pick, dose response (AID 720632)"}, "[19]": {"assay": "viability loss in Vero cells – cytotoxicity control for Vif-APOBEC3G degradation inhibitor project, dose response (AID 1117358)", "type": "functional", "conditions": "Vero"}, "Protein Tat": {"target": "Protein Tat (Human immunodeficiency virus type 1 group M subtype B (isolate HXB2)(HIV-1), UniProt P04608)", "sequence (P04608 whole entry)": "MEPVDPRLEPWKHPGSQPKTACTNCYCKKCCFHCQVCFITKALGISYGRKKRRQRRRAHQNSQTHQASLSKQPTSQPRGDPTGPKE", "type": "functional"}, "Large T antigen": {"target": "Large T antigen (Simian virus 40, UniProt P03070)", "type": "functional, Betapolyomavirus macacae"}},
  "note": "Activity calls are given as the source filed them.",
  "data": [
    {"compound": "N=C(NOC(=O)c1ccccc1)c1ccccn1", "values": [
      {"measurement": "AC50", "setting": "[1]", "result": "20.6 µM (active)"},
      {"measurement": "AC50", "setting": "[2]", "result": "11.9 µM (active)"},
      {"measurement": "AC50", "setting": "HEK293", "result": "8.6 µM (active)"},
      {"measurement": "AC50", "setting": "[3]", "result": "37.5 µM (active)"}
    ]},
    {"compound": "Cc1ccc(C(=O)CC(=O)COc2ccc(Cl)cc2C)cc1", "values": [
      {"measurement": "EC50", "setting": "[4]", "result": "0.82 µM (active)"}
    ]},
    {"compound": "O=C(NCCc1cccc(Cl)c1)c1cc(-c2ccco2)nc2ccccc12", "values": [
      {"measurement": "IC50", "setting": "[5]", "result": "> 56.8 µM (inactive)"},
      {"measurement": "IC50", "setting": "[6]", "result": "> 56.8 µM (inactive)"}
    ]},
    {"compound": "CCCCN(CC)S(=O)(=O)c1ccc(C(=O)Nc2nnc(CSC)o2)cc1", "values": [
      {"measurement": "EC50", "setting": "[7]", "result": "> 10 µM (not active)"},
      {"measurement": "CC50", "setting": "[8]", "result": "13.9 µM (active)"},
      {"measurement": "AC50", "setting": "Cytochrome P450 2D6", "result": "35.5 µM (inconclusive)"}
    ]},
    {"compound": "Cc1cccc2sc(NC(=O)CN(C)S(=O)(=O)c3cccs3)nc12", "values": [
      {"measurement": "EC50", "setting": "[7]", "result": "> 10 µM (not active)"}
    ]},
    {"compound": "COc1ccc2cc3cc(C(=O)NCc4cccs4)oc3nc2c1", "values": [
      {"measurement": "IC50", "setting": "[9]", "result": "10.7 µM (not active)"},
      {"measurement": "IC50", "setting": "[10]", "result": "12.9 µM (not active)"}
    ]},
    {"compound": "c1ccc(CNc2ncnc3c2cnn3-c2ccccc2)cc1", "values": [
      {"measurement": "EC50", "setting": "H4", "result": "> 120 µM (not active)"},
      {"measurement": "EC50", "setting": "[11]", "result": "3.43 µM (active)"},
      {"measurement": "EC50", "setting": "[12]", "result": "> 120 µM (not active)"},
      {"measurement": "IC50", "setting": "[13]", "result": "75.8 µM (not active)"}
    ]},
    {"compound": "CC1=CN2C(=N)/C(=C/c3ccc([N+](=O)[O-])o3)C(=O)N=C2S1", "values": [
      {"measurement": "EC50", "setting": "[14]", "result": "30.1 µM (inconclusive)"},
      {"measurement": "AC50", "setting": "[15]", "result": "2.57 µM (active)"},
      {"measurement": "EC50", "setting": "[16]", "result": "23.8 µM (inactive)"},
      {"measurement": "EC50", "setting": "[17]", "result": "> 99 µM (inactive)"},
      {"measurement": "IC50", "setting": "[18]", "result": "> 80 µM (inactive)"},
      {"measurement": "IC50", "setting": "NS3", "result": "9.08 µM (active)"},
      {"measurement": "AC50", "setting": "Caspase-6", "result": "5.85 µM (active)"}
    ]},
    {"compound": "CCN(C(=O)CN1CCN(c2ccc(O)cc2)CC1)c1c(N)n(Cc2ccccc2)c(=O)[nH]c1=O", "values": [
      {"measurement": "CC50", "setting": "[19]", "result": "> 40 µM (active)"},
      {"measurement": "IC50", "setting": "Protein Tat", "result": "68.5 µM (inconclusive)"},
      {"measurement": "IC50", "setting": "Large T antigen", "result": "7.74 µM (active)"}
    ]}
  ]
}
